Values quoted from earlier work as cited in patent US20070286899A1, “Photo-composition for the treatment of joint diseases” (priority 2004, published 2007).

Tested on: patients who use methotrexate

patients who develop gastrointestinal problems such as diarrhea and nausea: 60%
SMILES: CN(Cc1cnc2nc(N)nc(N)c2n1)c1ccc(C(=O)N[C@@H](CCC(=O)O)C(=O)O)cc1 [methotrexate]
